Results from US20130029970A1 (priority 2009, published 2013).
Read-outs that look alike come from different tables or passages of the source.

Assays:
human CB1 receptors = biological target: T1, human CB1 receptors (Homo sapiens, UniProt P21554); experiment: cAMP assay in HEK-293 cells, hCB1 agonist; format: cell-based
T1 construct: (cDNA clone) CNR01L000
How it was run: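 Stable hCB1 HEK-293 cells suspended in HBSS with 10 mM HEPES and 0.1% fatty acid-free BSA, incubated 30 min at 37° C. with compound plus forskolin (90 uM in the 3× compound solution). Lysed cAMP measured by enzyme-fragment kit; EC50 = 50% inhibition of forskolin-stimulated cAMP (forskolin maximum = 100%), sigmoidal fit.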

[1] = biological target: T2, recombinant human cannabinoid receptor CB1 (Homo sapiens, UniProt P21554); experiment: Cannabinoid receptor radioligand binding assay, [3H]-CP 55,940 displacement, hCB1
T2 construct: (cDNA clone) CNR01L000
T2 sequence (P21554 whole entry): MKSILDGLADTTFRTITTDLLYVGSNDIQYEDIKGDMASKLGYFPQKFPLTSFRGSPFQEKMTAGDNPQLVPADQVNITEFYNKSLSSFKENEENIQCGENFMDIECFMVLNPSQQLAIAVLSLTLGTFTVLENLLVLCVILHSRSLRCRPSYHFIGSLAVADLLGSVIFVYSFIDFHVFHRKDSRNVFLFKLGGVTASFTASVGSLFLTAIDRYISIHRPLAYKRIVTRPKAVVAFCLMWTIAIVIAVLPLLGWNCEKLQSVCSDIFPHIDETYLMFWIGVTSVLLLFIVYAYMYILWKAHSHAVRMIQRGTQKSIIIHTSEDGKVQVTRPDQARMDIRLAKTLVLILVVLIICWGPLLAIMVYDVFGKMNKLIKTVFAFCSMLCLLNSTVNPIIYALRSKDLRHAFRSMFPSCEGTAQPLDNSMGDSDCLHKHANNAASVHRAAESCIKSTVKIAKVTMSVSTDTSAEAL
How it was run: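 Membranes from HEK-293 cells stably expressing human CB1, 2-10 μg protein, incubated 90 min at room temperature with 0.5 nM [3H]-CP 55,940 in Tris-HCl pH 7.5, MgCl2, EDTA and 0.1% fatty-acid-free BSA. Bound radioactivity counted after rapid filtration; nonspecific binding defined with 1 μM unlabeled CP 55,940.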

human CB1 (hCB1) = biological target: T3, human CB1 (hCB1) (Homo sapiens, UniProt P21554); experiment: 35S GTPγS binding assay, hCB1 agonist; format: biochemical
T3 construct: (cDNA clone) CNR01L000
T3 sequence (P21554 whole entry): as above

[2] = inhibition of forskolin-stimulated cAMP, HEK-293 cells, read-out: hCB1 EC50 (cAMP ag)
[3] = inhibition of forskolin-stimulated cAMP, HEK-293 cells

T1 sequence (P21554 whole entry): as above

| SMILES | EC50 (human CB1 receptors; [2]) | IC50 [1] | EC50 (human CB1 (hCB1); GTPγS agonist, HEK-293 membranes, read-out: hCB1 EC50 (GTPyS ag)) | EC50 (human CB1 receptors) | EC50 (human CB1 (hCB1)) | hCB1 EC50 (cAMP ag, nM) (human CB1 receptors; [3]) |
| --- | --- | --- | --- | --- | --- | --- |
| Cc1cc2cc(C(=O)c3ccccc3OC(F)(F)F)sc2n1CCN1CCOCC1 [Compound 15, (5-Methyl-6-(2-morpholinoethyl)-6H-thieno[2,3-b]pyrrol-2-yl)(2-(trifluoromethoxy)phenyl)methanone] | 100 to 1000 nM | < 100 nM | 100 to 1000 nM |  |  |  |
| Cc1c(Cl)c2cc(C(=O)c3cccc(Cl)c3Cl)sc2n1CCN1CCOCC1 [Compound 27, (4-chloro-5-methyl-6-(2-morpholinoethyl)-6H-thieno[2,3-b]pyrrol-2-yl)(2,3-dichlorophenyl)methanone] |  | < 100 nM |  | 100 to 1000 nM | 100 to 1000 nM |  |
| COc1ccc(C(=O)c2cc3cc(C)n(Cc4ccccc4)c3s2)c(Cl)c1 [Compound 114, (6-Benzyl-5-methyl-6H-thieno[2,3-b]pyrrol-2-yl)(2-chloro-4-methoxyphenyl)methanone] | 1000 to 10000 nM | 1000 to 10000 nM |  |  |  |  |
| CSc1ccc(C(=O)c2cc3cc(C)n(CCN4CCOCC4)c3s2)cc1 [Compound 115, (5-Methyl-6-(2-morpholinoethyl)-6H-thieno[2,3-b]pyrrol-2-yl)(4-(methylthio)phenyl)methanone] |  | 1000 to 10000 nM |  |  |  | NS (NS means “Not Significant,” which means less than 30% agonist activity when compared to the positive control.) |
| COc1ccc(C(=O)c2cc3cc(C)n(CCN4CCOCC4)c3s2)cc1Cl [Compound 116, (3-Chloro-4-methoxyphenyl)(5-methyl-6-(2-morpholinoethyl)-6H-thieno[2,3-b]pyrrol-2-yl)methanone] |  | 1000 to 10000 nM |  |  |  | NS (NS means “Not Significant,” which means less than 30% agonist activity when compared to the positive control.) |
| COc1ccc(C(=O)c2cc3cc(C)n(CCN4CCCCC4)c3s2)cn1 [Compound 117, (6-Methoxypyridin-3-yl)(5-methyl-6-(2-(piperidin-1-yl)ethyl)-6H-thieno[2,3-b]pyrrol-2-yl)methanone] |  | 1000 to 10000 nM |  |  |  | NS (NS means “Not Significant,” which means less than 30% agonist activity when compared to the positive control.) |
| CCc1ccc(C(=O)c2cc3cc(C)n(CCN4CCOCC4)c3s2)cc1 [Compound 122, (4-Ethylphenyl)(5-methyl-6-(2-morpholinoethyl)-6H-thieno[2,3-b]pyrrol-2-yl)methanone] | 1000 to 10000 nM | 1000 to 10000 nM |  |  |  |  |
| Cc1cc2cc(C(=O)c3cccc(Cl)n3)sc2n1CCN1CCOCC1 [Compound 123, (6-Chloropyridin-2-yl)(5-methyl-6-(2-morpholinoethyl)-6H-thieno[2,3-b]pyrrol-2-yl)methanone] |  | 1000 to 10000 nM |  |  |  | NS (NS means “Not Significant,” which means less than 30% agonist activity when compared to the positive control.) |
| Cc1ccc(C(=O)c2cc3cc(C)n(CCN4CCOCC4)c3s2)cc1 [Compound 124, (5-Methyl-6-(2-morpholinoethyl)-6H-thieno[2,3-b]pyrrol-2-yl)(p-tolyl)methanone] | 1000 to 10000 nM | 1000 to 10000 nM |  |  |  |  |
| Cc1ccc(C(O)c2cc3cc(C)n(CCN4CCOCC4)c3s2)cn1 (stereo not drawn) [Compound 125, (5-Methyl-6-(2-morpholinoethyl)-6H-thieno[2,3-b]pyrrol-2-yl)(6-methylpyridin-3-yl)methanol] |  | > 10000 nM |  |  |  | NS (NS means “Not Significant,” which means less than 30% agonist activity when compared to the positive control.) |
| COc1cc(F)c(C(=O)c2cc3cc(C)n(CCN4CCOCC4)c3s2)c(F)c1 [Compound 127, (2,6-difluoro-4-methoxyphenyl)(5-methyl-6-(2-morpholinoethyl)-6H-thieno[2,3-b]pyrrol-2-yl)methanone] | 1000 to 10000 nM | 1000 to 10000 nM |  |  |  |  |
| Cc1ccc(C(=O)c2cc3cc(C)n(CCN4CCOCC4)c3s2)cn1 [Compound 130, (5-methyl-6-(2-morpholinoethyl)-6H-thieno[2,3-b]pyrrol-2-yl)(6-methylpyridin-3-yl)methanone] |  | > 10000 nM |  |  |  | NS (NS means “Not Significant,” which means less than 30% agonist activity when compared to the positive control.) |
| COc1ccc(C(=O)c2cc3cc(C)n(CCN4CCOCC4)c3s2)nc1 [Compound 131, (5-methoxypyridin-2-yl)(5-methyl-6-(2-morpholinoethyl)-6H-thieno[2,3-b]pyrrol-2-yl)methanone] |  | 1000 to 10000 nM |  |  |  | NS (NS means “Not Significant,” which means less than 30% agonist activity when compared to the positive control.) |
| Cc1cc2cc(C(=O)c3ccc(N(C)C(=O)OC(C)(C)C)cc3)sc2n1CCN1CCOCC1 [Compound 132, tert-butylmethyl(4-(5-methyl-6-(2-morpholinoethyl)-6H-thieno[2,3-b]pyrrole-2-carbonyl)phenyl)carbamate] |  | 1000 to 10000 nM |  |  |  | NS (NS means “Not Significant,” which means less than 30% agonist activity when compared to the positive control.) |
| CNc1ccc(C(=O)c2cc3cc(C)n(CCN4CCOCC4)c3s2)cc1 [Compound 134, (5-methyl-6-(2-morpholinoethyl)-6H-thieno[2,3-b]pyrrol-2-yl)(4-(methylamino)phenyl)methanone] |  | 1000 to 10000 nM |  |  |  | NS (NS means “Not Significant,” which means less than 30% agonist activity when compared to the positive control.) |
| COc1ccc(C(=O)c2cc3c(Cl)c(C)n(CCN4CCOCC4)c3s2)cc1 [Compound 140, (4-chloro-5-methyl-6-(2-morpholinoethyl)-6H-thieno[2,3-b]pyrrol-2-yl)(4-methoxyphenyl)methanone] |  | 1000 to 10000 nM |  |  |  | NS (NS means “Not Significant,” which means less than 30% agonist activity when compared to the positive control.) |
| CCN(CC)CCn1c(C)cc2cc(C(=O)c3ccc(OC)nc3)sc21 [Compound 142, (6-(2-(diethylamino)ethyl)-5-methyl-6H-thieno[2,3-b]pyrrol-2-yl)(6-methoxypyridin-3-yl)methanone] |  | > 10000 nM |  |  |  | NS (NS means “Not Significant,” which means less than 30% agonist activity when compared to the positive control.) |
| COc1ccc(C(=O)c2cc3cc(C)n(CC4CCOCC4)c3s2)cn1 [Compound 144, (6-methoxypyridin-3-yl)(5-methyl-6-((tetrahydro-2H-pyran-4-yl)methyl)-6H-thieno[2,3-b]pyrrol-2-yl)methanone] |  | 1000 to 10000 nM |  |  |  | NS (NS means “Not Significant,” which means less than 30% agonist activity when compared to the positive control.) |
| COc1ccc(C(=O)c2cc3cc(C)n(CC4CCOCC4)c3s2)c(F)c1 [Compound 145, (2-fluoro-4-methoxyphenyl)(5-methyl-6-((tetrahydro-2H-pyran-4-yl)methyl)-6H-thieno[2,3-b]pyrrol-2-yl)methanone] | 1000 to 10000 nM | 1000 to 10000 nM |  |  |  |  |
| CCOc1ccc(C(=O)c2cc3cc(C)n(CCN4CCOCC4)c3s2)cn1 [Compound 150, (6-Ethoxypyridin-3-yl)(5-methyl-6-(2-morpholinoethyl)-6H-thieno[2,3-b]pyrrol-2-yl)methanone] |  | > 10000 nM |  |  |  | NS (NS means “Not Significant,” which means less than 30% agonist activity when compared to the positive control.) |
